Among the data in patent EP3800188A1, “SUBSTITUTED PYRAZOLOPYRIMIDINES AS IRAK4 INHIBITORS” (Bayer AG, priority 2019, dated 2021) are IC50 values, retold here.

Molecules are shown by their SMILES. pIC50: −log10 of the molar value.

The target of this assay is T1, human IRAK4 (Homo sapiens, UniProt Q9NWZ3).
T1 construct: GST (N); made in house; host or cells: baculovirus-infected Hi5 (BTI-TN-5B1-4) insect cells
T1 sequence (Q9NWZ3 1-460): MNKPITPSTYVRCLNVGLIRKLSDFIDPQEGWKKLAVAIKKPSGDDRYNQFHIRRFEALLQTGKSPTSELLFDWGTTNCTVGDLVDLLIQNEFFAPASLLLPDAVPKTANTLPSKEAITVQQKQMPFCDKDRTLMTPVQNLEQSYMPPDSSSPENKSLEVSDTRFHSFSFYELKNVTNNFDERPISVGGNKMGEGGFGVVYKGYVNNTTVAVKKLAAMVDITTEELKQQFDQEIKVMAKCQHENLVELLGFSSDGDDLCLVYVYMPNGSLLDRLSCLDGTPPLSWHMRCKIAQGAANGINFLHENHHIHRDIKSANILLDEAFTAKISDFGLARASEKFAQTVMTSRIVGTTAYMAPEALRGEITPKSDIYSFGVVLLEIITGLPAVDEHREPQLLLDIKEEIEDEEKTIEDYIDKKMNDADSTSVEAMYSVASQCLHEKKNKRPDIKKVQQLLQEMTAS
Briefly: Human IRAK4 kinase activity inhibition assay (IRAK4 TR-FRET assay). The class given is biochemical. Particulars: 1 mM ATP, GST-human IRAK4, average or median values. Here is the method: The IRAK4-inhibitory activity of the inventive substances was measured in the IRAK4 TR-FRET assay (TR-FRET = Time Resolved Fluorescence Resonance Energy Transfer) described hereinafter.
Recombinant fusion protein from N-terminal GST (glutathione S-transferase) and human IRAK4, expressed in baculovirus-infected insect cells (Hi5, BTI-TN-5B1-4, cell line purchased from Invitrogen, catalogue No. B855-02) and purified via affinity chromatography, was used as enzyme. The substrate used for the kinase reaction was the biotinylated peptide biotin-Ahx-[…] (C-terminus in amide form) which can be purchased, for example, from Biosyntan GmbH (Berlin-Buch). For the assay, 11 different concentrations in the range from 20 µM to 0.073 nM were prepared from a 2 mM DMSO solution of the test substance. 50 nl of the respective 100fold concentrated test compound solutions in DMSO were pipetted into a black low-volume 384-well microtitre plate or a black 1536-well microtiter plate (both Greiner Bio-One, Frickenhausen, Germany), 2 µl of a solution of IRAK4 in assay buffer [50 mM HEPES pH 7.5, 5mM MgCl2, 1.0 mM dithiothreitol, 30 µM activated sodium orthovanadate, 0.1% (w/v) of bovine gamma-globulin (BGG) 0.04% (v/v) nonidet-P40 (Sigma)] were added and the mixture was incubated for 15 min to allow prebinding of the substances to the enzyme prior to the kinase reaction. […] The concentration of the IRAK4 was adjusted to the respective activity of the enzyme and set such that the assay was carried out in the linear range. Typical concentrations were in the order of about 0.2 nM. The reaction was stopped by addition of 5 µl of a solution of TR-FRET detection reagents [0.1 µM streptavidin-XL665 (Cisbio Bioassays; France, catalogue No. 610SAXLG)] and 1.5 nM anti-phosphoserine antibody [Merck Millipore, "STK Antibody", catalogue No. 35-002] and 0.6 nM LANCE EU-W1024-labelled anti-mouse-IgG antibody (Perkin-Elmer, product No. AD0077; alternatively, it is possible to use a terbium cryptate-labelled anti-mouse-IgG antibody from Cisbio Bioassays) in aqueous EDTA solution (100 mM EDTA, 0.4 % [w/v] bovine serum albumin [BSA] in 25 mM HEPES pH 7.5). The resulting mixture was incubated at 22°C for 1 h to allow formation of a complex of the biotinylated phosphorylated substrate and the detection reagents. The amount of the phosphorylated substrate was then evaluated by measuring the resonance energy transfer from europium chelate-labelled anti-mouse-IgG antibody to streptavidin-XL665. To this end, the fluorescence emissions at 620 nm and 665 nm were measured after excitation at 350 nm in a TR-FRET measuring instrument, for example a Rubystar (BMG Labtechnologies, Offenburg, Germany) or a Viewlux (Perkin-Elmer). The ratio of the emissions at 665 nm and 622 nm was taken as a measure of the amount of phosphorylated substrate. The data were normalized (enzyme reaction without test substance = 0% inhibition; all other assay components but no enzyme = 100% inhibition).
Background: In TR-FRET formats the signal depends on donor and acceptor labels being close together.
One may read the pIC50 as −log10 of the IC50, conventionally taken in molar units. In turn, `CCC1(O)CN(c2nc(N[C@H]3CCN(C)C3)nc3c2cnn3-c2cccc(S(C)(=O)=O)c2)C1` [Example V-1, 3-ethyl-1-(6-{[(3S)-1-methylpyrrolidin-3-yl]amino}-1-[3-(methylsulfonyl)phenyl]-1H-pyrazolo[3,4-d]pyrimidin-4-yl)azetidin-3-ol] gave a pIC50 of 6.77.

The compound `CCS(=O)(=O)N1CC(Nc2nc(N3C[C@@H](O)[C@H](O)C3)c3cnn(-c4cccc(C(F)(F)F)c4)c3n2)C1` [Example I-84, (3R,4R)-1-(6-{[1-(ethylsulfonyl)azetidin-3-yl]amino}-1-[3-(trifluoromethyl)phenyl]-1H-pyrazolo[3,4-d]pyrimidin-4-yl)pyrrolidine-3,4-diol] had a pIC50 of 7.32.

The compound `CC(C)(O)C1CCN(c2nc(NC3CC(=O)NC3(C)C)nc3c2cnn3-c2cccc(C(F)(F)F)c2)CC1` (centres unmarked) [Example I-6, 4-({4-[4-(2-hydroxypropan-2-yl)piperidin-1-yl]-1-[3-(trifluoromethyl)phenyl]-1H-pyrazolo-[3,4-d]pyrimidin-6-yl}amino)-5,5-dimethylpyrrolidin-2-one] showed a pIC50 of 7.11.

Regarding `CC(C)(O)C1CCN(c2nc(N[C@@H]3CN4CCC3CC4)nc3c2cnn3-c2cccc(C(F)(F)F)c2)CC1` [Example I-64-2], the negative logarithm of the IC50 (pIC50) is 7.23.

For `CC(C)(O)C1CCN(c2nc(NC3CNC(=O)C3)nc3c2cnn3-c2cccc(C(F)(F)F)c2)CC1` (centres unmarked) [Example I-2-3, 4-({4-[4-(2-hydroxypropan-2-yl)piperidin-1-yl]-1-[3-(trifluoromethyl)phenyl]-1H-pyrazolo[3,4-d]pyrimidin-6-yl}amino)pyrrolidin-2-one], the pIC50 is 8.01.

On to `C[C@]1(O)C[C@H](Nc2nc(N3CC(N4CCOCC4=O)C3)c3cnn(-c4cccc(C(F)(F)F)c4)c3n2)C1` [Example I-122, 4-(1-{6-[(trans-3-hydroxy-3-methylcyclobutyl)amino]-1-[3-(trifluoromethyl)phenyl]-1H-pyrazolo[3,4-d]pyrimidin-4-yl}azetidin-3-yl)morpholin-3-one], for which the pIC50 is 8.56.

`CCC1(O)CN(c2nc(N[C@H]3CCN(C)C3)nc3c2cnn3-c2cccc(C(F)(F)F)c2)C1` [Example I-18, 3-ethyl-1-(6-{[(3S)-1-methylpyrrolidin-3-yl]amino}-1-[3-(trifluoromethyl)phenyl]-1H-pyrazolo[3,4-d]pyrimidin-4-yl)azetidin-3-ol] showed a pIC50 of 7.74.

For the compound `O=C1C[C@H](Nc2nc(N3CC[C@@H](N4CCOCC4)C3)c3cnn(-c4cccc(C(F)(F)F)c4)c3n2)CN1` [Example I-21, (4S)-4-({4-[(3R)-3-(morpholin-4-yl)pyrrolidin-1-yl]-1-[3-(trifluoromethyl)phenyl]-1H-pyrazolo[3,4-d]pyrimidin-6-yl}amino)pyrrolidin-2-one], the pIC50 was 7.11. Compared with the last compound, the pIC50 is 0.63 log units lower.

In turn, `O[C@@H]1CCN(c2nc(N[C@H]3C[C@@H](O)C3)nc3c2cnn3-c2cccc(C(F)(F)F)c2)C1` [Example I-117, (3R)-1-(6-{[(1s,3S)-3-hydroxycyclobutyl]amino}-1-[3-(trifluoromethyl)phenyl]-1H-pyrazolo[3,4-d]pyrimidin-4-yl)pyrrolidin-3-ol] had a pIC50 of 7.63. Against the preceding compound, the pIC50 is 0.52 log units higher.

With `CC1(O)CN(c2nc(N[C@@H]3CCN(S(C)(=O)=O)C3)nc3c2cnn3-c2cccc(C(F)(F)F)c2)C1` [Example I-41-1, 3-methyl-1-(6-{[(3R)-1-(methylsulfonyl)pyrrolidin-3-yl]amino}-1-[3-(trifluoromethyl)-phenyl]-1H-pyrazolo[3,4-d]pyrimidin-4-yl)azetidin-3-ol], the pIC50 is 6.60. This pIC50 lies 1.03 log units lower than the previous one.

`CN1CC[C@@H](Nc2nc(N3CCC(C(C)(C)O)CC3)c3cnn(-c4cccc(C(F)(F)F)c4)c3n2)C1=O` [Example I-9, (3R)-3-({4-[4-(2-hydroxypropan-2-yl)piperidin-1-yl]-1-[3-(trifluoromethyl)phenyl]-1H-pyrazolo[3,4-d]pyrimidin-6-yl}amino)-1-methylpyrrolidin-2-one]: the negative logarithm of the IC50 (pIC50) is 7.23.

Take `CC(C)(O)C1CCN(c2nc(N[C@H]3C[C@@](O)(C(F)(F)F)C3)nc3c2cnn3-c2cccc(C(F)(F)F)c2)CC1` [Example I-63, trans-3-({4-[4-(2-hydroxypropan-2-yl)piperidin-1-yl]-1-[3-(trifluoromethyl)phenyl]-1H-pyrazolo[3,4-d]pyrimidin-6-yl}amino)-1-(trifluoromethyl)cyclobutanol]: the pIC50 was 7.51.

In the case of `C[C@@]1(O)CCN(c2nc(N[C@H]3C[C@H](O)C3)nc3c2cnn3-c2cccc(C(F)(F)F)c2)C1` [Example I-102, (3R)-1-(6-{[(1r,3R)-3-hydroxycyclobutyl]amino}-1-[3-(trifluoromethyl)phenyl]-1H-pyrazolo[3,4-d]pyrimidin-4-yl)-3-methylpyrrolidin-3-ol], the pIC50 was 7.30.

Compound `CN(C)C1CN(c2nc(N[C@@H]3CNC(=O)C3)nc3c2cnn3-c2cccc(C(F)(F)F)c2)C1` [Example I-44, (4S)-4-({4-[3-(dimethylamino)azetidin-1-yl]-1-[3-(trifluoromethyl)phenyl]-1H-pyrazolo-[3,4-d]pyrimidin-6-yl}amino)pyrrolidin-2-one] had a pIC50 of 7.80.

As for `O[C@H]1CN(c2nc(N[C@H]3C[C@@H](O)C3)nc3c2cnn3-c2cccc(C(F)(F)F)c2)C[C@@H]1F` [Example I-97, (3S,4S)-4-fluoro-1-(6-{[(1s,3R)-3-hydroxycyclobutyl]amino}-1-[3-(trifluoromethyl)-phenyl]-1H-pyrazolo[3,4-d]pyrimidin-4-yl)pyrrolidin-3-ol], the pIC50 was 8.09.

For the compound `C[C@H]1CN(c2nc(N[C@H]3C[C@H](S(C)(=O)=O)C3)nc3c2cnn3-c2cccc(C(F)F)c2)C[C@@H]1O` (single isomer, unassigned) [II-17-3, (3R*,4S*)-1-(1-[3-(difluoromethyl)phenyl]-6-{[trans-3-(methylsulfonyl)cyclobutyl]amino}-1H-pyrazolo[3,4-d]pyrimidin-4-yl)-4-methylpyrrolidin-3-ol], the pIC50 was 8.38.

`O=S1(=O)CCN(C2CN(c3nc(N[C@H]4CCOC4)nc4c3cnn4-c3cccc(C(F)(F)F)c3)C2)CC1` [Example I-26-2, 4-[3-(1,1-dioxidothiomorpholin-4-yl)azetidin-1-yl]-N-[(3S)-tetrahydrofuran-3-yl]-1-[3-(trifluoromethyl)phenyl]-1H-pyrazolo[3,4-d]pyrimidin-6-amine] gave a negative logarithm of the IC50 (pIC50) of 7.24. This pIC50 lies 1.14 log units lower than the previous one.

Compound `CN1CC(Nc2nc(N3CCC(C(C)(C)O)CC3)c3cnn(-c4cccc(C(F)(F)F)c4)c3n2)CC1=O` (centres unmarked) [Example I-8, 4-({4-[4-(2-hydroxypropan-2-yl)piperidin-1-yl]-1-[3-(trifluoromethyl)phenyl]-1H-pyrazolo[3,4-d]pyrimidin-6-yl}amino)-1-methylpyrrolidin-2-one] showed a pIC50 of 7.38.

For the compound `CC1(Nc2nc(N3CC(N4CCOCC4)C3)c3cnn(-c4cccc(C(F)(F)F)c4)c3n2)CCS(=O)(=O)C1` (centres unmarked) [Example I-43, N-(3-methyl-1,1-dioxidotetrahydrothiophen-3-yl)-4-[3-(morpholin-4-yl)azetidin-1-yl]-1-[3-(trifluoromethyl)phenyl]-1H-pyrazolo[3,4-d]pyrimidin-6-amine], the negative-log IC50 (pIC50) was 6.55.

`CC1(O)CN(c2nc(N[C@H]3CCN(S(C)(=O)=O)C3)nc3c2cnn3-c2cccc(C(F)(F)F)c2)C1` [Example I-41-2, 3-methyl-1-(6-{[(3S)-1-(methylsulfonyl)pyrrolidin-3-yl]amino}-1-[3-(trifluoromethyl)-phenyl]-1H-pyrazolo[3,4-d]pyrimidin-4-yl)azetidin-3-ol] showed a pIC50 of 6.40.
